According to patent publication US20150283120A1, “ANTIBIOTIC METHODS AND COMPOSITIONS FOR BACTERIA INFECTIONS” (THE UNIVERSITY OF CHICAGO, priority 2012, published 2015):
Counter-ions that a name gives are not always drawn.

Legend:
Assay type in all cases: cell-based, Staphylococcus aureus
vraR transcription = test: Tertiary screen: qRT-PCR of vraR in strain 923; settings: for Effect on vraSR Transcription: Compound alone: compound 10 μM, no oxacillin
[1] = test system: MRSA strain USA300 Pvra-lux; settings: compound 10 μM + oxacillin 2 μg/mL; for RG avg (relative growth): ratio of OD600 to oxacillin alone, four runs
Description: (§1) In the secondary screen each microtiter plate contained either cells in TSB alone (16 replicates), cells with oxacillin (2 μg/mL, 31 replicates), or cells with test compound and oxacillin (2 μg/mL, 49 wells). Each compound was assayed in four separate biological replicates.
(§2) All compounds classified in the primary screen as synergists that were vraSR-stimulating or -repressing (as shown in Table 8) were screened in a secondary assay for their effects on both growth and Pvra::lux induction by oxacillin. […] Each compound was tested four separate times at 10 μM in the presence of oxacillin (2 μg/mL) and luminescence was measured every 15 minutes. Relative growth (RG) and relative luminescence (RL) was calculated as the ratio between the OD600 or max LU value in the presence of compound and oxacillin over the average from pooled control values obtained from the same plate. […] Compounds that produced an average RG (ratio of the OD600 of the culture grown with test compound combined with oxacillin to that of oxacillin alone) of <0.8 were classified as oxacillin synergists or potentiators. The relative luminescence (RL) was the ratio of the LU produced in the presence of the test compound combined with oxacillin to that produced by oxacillin alone. Compounds were classified as “vraSR repressors” (mean RL of <0.8), “vraSR stimulators”, (mean RL>1.2), and “vraSR neutral” (mean RL between 0.80-1.2). […] In contrast, 34 compounds had no effect on growth in the presence of oxacillin (“un” in the OD600 category). Among the oxacillin potentiators, there were 2 vraSR stimulators, 3 vraSR neutral compounds and 10 vraSR repressors.

[2] = test system: vraSR transcription (Pvra::lux); settings: compound 10 μM + oxacillin 2 μg/mL; for RL avg (relative luminescence): ratio of LU to oxacillin alone, four runs
Description: as §1, §2

Compound | Effect on vraSR Transcription: Compound alone (vraR transcription; qRT-PCR of vraR) | OD600 category [1] | RG avg (relative growth) [1] | Effect on vraSR transcription [2] | RL avg (relative luminescence) [2] | Effect on vraSR Transcription: With oxacillin (vraR transcription; qRT-PCR of vraR, compound 10 μM + oxacillin 2 μg/mL, hydrochloride) | classification of lux screen result against qRT-PCR (true/false repressor or stimulator) (vraR transcription; in the presence of oxacillin)
CCCCc1oc2ccccc2c1C(=O)c1cc(I)c(OCCN(CC)CC)c(I)c1 [Amiodarone hydrochloride] | stimulate | inhibited (of <0.8 were classified as oxacillin synergists or potentiators) | 0.84 | stimulate (“vraSR stimulators”, (mean RL>1.2)) | 0.68 | – | –
CCN1CCN(C(=O)N[C@@H](C(=O)N[C@@H]2C(=O)N3C(C(=O)O)=C(CSc4nnnn4C)CS[C@H]23)c2ccc(O)cc2)C(=O)C1=O [Cefoperazone dihydrate] | stimulate | inhibited (of <0.8 were classified as oxacillin synergists or potentiators) | 0.79 | neutral (“vraSR neutral” (mean RL between 0.80-1.2)) | 0.77 | – | –
CN(C)CCn1nnnc1SCC1=C(C(=O)O)N2C(=O)[C@@H](NC(=O)Cc3csc(N)n3)[C@H]2SC1 [Cefotiam hydrochloride] | stimulate | inhibited (of <0.8 were classified as oxacillin synergists or potentiators) | 0.64 | neutral (“vraSR neutral” (mean RL between 0.80-1.2)) | 0.64 | vraR activator | –
O=C1OC(CN2CCOCC2)CN1/N=C/c1ccc([N+](=O)[O-])o1 (stereo not shown) [Furaltadone hydrochloride] | – | un (no effect on growth in the presence of oxacillin (“un” in the OD600 category)) | 1.00 | repress (“vraSR repressors” (mean RL of <0.8)) | 1.01 | – | –
N=C(N)NC(=O)Cc1c(Cl)cccc1Cl [Guanfacine hydrochloride] | – | un (no effect on growth in the presence of oxacillin (“un” in the OD600 category)) | 0.88 | neutral (“vraSR neutral” (mean RL between 0.80-1.2)) | 0.79 | – | –
CC(C(=O)O)c1ccc(N2Cc3ccccc3C2=O)cc1 (stereo not shown) [Indoprofen] | – | un (no effect on growth in the presence of oxacillin (“un” in the OD600 category)) | 0.98 | neutral (“vraSR neutral” (mean RL between 0.80-1.2)) | 0.87 | – | –
N[C@@H](Cc1cc(I)c(Oc2ccc(O)c(I)c2)c(I)c1)C(=O)O [Liothyronine] | – | un (no effect on growth in the presence of oxacillin (“un” in the OD600 category)) | 0.88 | neutral (“vraSR neutral” (mean RL between 0.80-1.2)) | 0.87 | – | –
CN(C)CCOC(=O)COc1ccc(Cl)cc1 [Meclofenoxate hydrochloride] | – | un (no effect on growth in the presence of oxacillin (“un” in the OD600 category)) | 1.08 | neutral (“vraSR neutral” (mean RL between 0.80-1.2)) | 1.08 | – | –
O=C1c2c(O)ccc(O)c2C(=O)c2c(NCCNCCO)ccc(NCCNCCO)c21 [Mitoxantrone dihydrochloride] | – | un (no effect on growth in the presence of oxacillin (“un” in the OD600 category)) | 0.94 | neutral (“vraSR neutral” (mean RL between 0.80-1.2)) | 0.83 | – | –
CC1CS(=O)(=O)CCN1/N=C/c1ccc([N+](=O)[O-])o1 (stereo not shown) [Nifurtimox] | – | un (no effect on growth in the presence of oxacillin (“un” in the OD600 category)) | 0.97 | repress (“vraSR repressors” (mean RL of <0.8)) | 0.95 | – | –
C[C@@H]1[C@H](O)[C@@H](C)/C=C/C=C/CC/C=C/C=C/C=C/C=C/C(O[C@H]2O[C@H](C)[C@@H](O)[C@H](N)[C@@H]2O)CC2O[C@](O)(CC(O)C(O)CCC(O)CC(O)CC(O)CC(=O)O[C@H]1C)CC(O)C2C(=O)O (stereo partly shown) [Nystatine] | – | un (no effect on growth in the presence of oxacillin (“un” in the OD600 category)) | 1.00 | neutral (“vraSR neutral” (mean RL between 0.80-1.2)) | 1.04 | – | –
CCN(CC)CCc1nc(-c2ccccc2)no1.O=C(O)CC(O)(CC(=O)O)C(=O)O [Oxalamine citrate salt] | – | un (no effect on growth in the presence of oxacillin (“un” in the OD600 category)) | 1.03 | neutral (“vraSR neutral” (mean RL between 0.80-1.2)) | 1.00 | – | –
CC(Oc1ccccc1)C(=O)N[C@@H]1C(=O)N2[C@@H]1SC(C)(C)[C@@H]2C(=O)O (stereo partly shown) [Phenethicillin potassium salt] | – | un (no effect on growth in the presence of oxacillin (“un” in the OD600 category)) | 0.94 | neutral (“vraSR neutral” (mean RL between 0.80-1.2)) | 0.88 | – | –
CN(C)CCCN1c2ccccc2Sc2ccccc21 [Promazine hydrochloride] | – | un (no effect on growth in the presence of oxacillin (“un” in the OD600 category)) | 1.09 | neutral (“vraSR neutral” (mean RL between 0.80-1.2)) | 1.08 | – | –
O=C(c1ccc(OCCN2CCCCC2)cc1)c1c(-c2ccc(O)cc2)sc2cc(O)ccc12 [Raloxifene hydrochloride] | – | un (no effect on growth in the presence of oxacillin (“un” in the OD600 category)) | 0.97 | neutral (“vraSR neutral” (mean RL between 0.80-1.2)) | 0.85 | – | –
C[n+]1cc2c3c(ccc2c2ccc4cc5c(cc4c21)OCO5)OCO3 [Sanguinarine] | – | inhibited (of <0.8 were classified as oxacillin synergists or potentiators) | 0.78 | repress (“vraSR repressors” (mean RL of <0.8)) | 0.47 | – | –
CN[C@@H]1[C@H](O)[C@H](NC)[C@H]2O[C@@]3(O)C(=O)C[C@@H](C)O[C@H]3O[C@@H]2[C@H]1O [Spectinomycin dihydrochloride] | – | un (no effect on growth in the presence of oxacillin (“un” in the OD600 category)) | 0.89 | neutral (“vraSR neutral” (mean RL between 0.80-1.2)) | 0.77 | – | –
Cc1ccnc(NS(=O)(=O)c2ccc(N)cc2)n1 [Sulfamerazine] | – | un (no effect on growth in the presence of oxacillin (“un” in the OD600 category)) | 0.99 | neutral (“vraSR neutral” (mean RL between 0.80-1.2)) | 1.01 | – | –
NS(=O)(=O)c1cc2c(cc1Cl)NC(C(Cl)Cl)NS2(=O)=O (stereo not shown) [Trichlormethiazide] | – | un (no effect on growth in the presence of oxacillin (“un” in the OD600 category)) | 1.10 | neutral (“vraSR neutral” (mean RL between 0.80-1.2)) | 1.06 | – | –
OC(Cn1cncn1)(Cn1cncn1)c1ccc(F)cc1F [fluconazole] | – | – | – | – | – | – | false stimulator
Trimeprazine tartrate | – | un (no effect on growth in the presence of oxacillin (“un” in the OD600 category)) | 1.04 | neutral (“vraSR neutral” (mean RL between 0.80-1.2)) | 0.96 | – | –
